From article PMC4926326, “Synthesis, Biological Activity, and Apoptotic Properties of NO-Donor/Enmein-Type ent-Kauranoid Hybrids” (International Journal of Molecular Sciences, 2016) come the findings set out here.

Series [1] concerns MGC-803 gastric cancer cell line. The series is described as follows: MTT antiproliferative assay. It is filed as cell-based, human. The following applies: MTT, 72 h, mean ± SD of three experiments, read-out: IC50 MGC-803. Here is the method: (§1) The antiproliferative activity of 9a–i against four human cancer cell lines K562 leukemia cell line, MGC-803 gastric cancer cell line, CaEs-17 esophageal cancer cell line, and Bel-7402 hepatoma cell line, and human normal liver cells L-02 was evaluated by MTT assay (Table 2).
(§2) MTT assay was developed to monitor mammalian cell survival and proliferation in vitro [32]. CaEs-17 cells (K562, Bel-7402 and MGC-803 cells) from American Type Culture Collection (ATCC, Manassas, VA, USA) were cultivated in RPMI-1640 medium supplemented with 5% fetal bovine serum (v/v), 100 U/mL penicillin, and […] streptomycin. Cells (5 × 10^4 cell/mL) at the log phase of their growth cycle were added to each well of a 96-well plate (100 µL/well) and incubated for 24 h at 37 °C in a humidified atmosphere of 5% CO2. Then, cells were treated with or without test compounds in different concentrations. After 72 h, 5 mg/mL MTT solution (20 µL per well) was added. Cells were incubated at 37 °C. After 4 h, MTT solution was removed and DMSO was added to each well (150 µL). Ten minutes later at room temperature, the optical density (OD) values were measured at the wavelength of 490 nm on a Microplate Reader NO. 550 (BIO-RAD Instruments Inc., Hercules, CA, USA). In this experiment, 10 µg/mL of Taxol was used as the positive control and 0.1% DMSO was used as the negative reference.
A general note: Formazan colour is commonly taken as a measure of viable cells.

Series [2] relates to Bel-7402 hepatoma cell line. The series is described as follows: MTT antiproliferative assay. As to conditions: for IC50: Homo sapiens, Bel-7402, MTT, 72 h, mean ± SD of three experiments, read-out: IC50 Bel-7402; for SI (selectivity index): SI = IC50, L-02/IC50, Bel-7402. In kind it is cell-based, human. Here is the method:
as §1, §2

A further series relates to K562 leukemia cell line. The series is described as follows: MTT antiproliferative assay. It is filed as cell-based, human. The following applies: MTT, 72 h, mean ± SD of three experiments, read-out: IC50 K562. On the procedure:
as §1, §2

In series [3] the test system is CaEs-17 esophageal cancer cell line. The series is described as follows: MTT antiproliferative assay. In kind it is cell-based. The following applies: Homo sapiens, CaEs17; MTT, 72 h, mean ± SD of three experiments; read-out: IC50 CaEs-17. Here is the method:
as §1, §2

For series [4], the system named is Bacillus subtilis (CMCC 63501). The series is described as follows: Antibacterial assay, microbroth dilution MIC. In kind it is cell-based. As to conditions: Bacillus subtilis, CMCC63501; 35 °C, 18 h; read-out: MIC B. subtilis. An excerpt: (§3) The antibacterial activity of NO donor/enmein-type ent-kauranoid hybrids 9a–i against the Gram-negative bacterium Escherichia coli (ATCC 25922), Gram-positive bacterium Staphylococcus aureus (ATCC 29213) and Bacillus subtilis (CMCC 63501), and the fungus Monilia albicans (ATCC 10231) was first disclosed and summarized in Table 1. […] Thus, the introduction of NO-donor substituent groups at the 14-position of enmein-type 6,7-seco-ent-kauranoid could improve antimicrobial activity against S. aureus and B. subtilis.
(§4) The minimal inhibitory concentrations (MICs) were carried out by microbroth dilution method described by the Clinical Laboratory Standards Institute. A stock solution of all the target compounds was prepared with DMSO-medium (1:2), and then graded quantities of the test compounds were diluted with medium. The specified concentration suspension of fungus and bacterium contained approximately 10^3, and 10^5 CFU/mL was added into microtitration plates. The inoculated 96-well plates were incubated at 35 °C for 18 h. MIC was defined as the lowest concentrations that prevented visible growth of the bacteria.

For series [5], the system named is Staphylococcus aureus (ATCC 29213). Put plainly: Antibacterial assay, microbroth dilution MIC. In kind it is cell-based. As to conditions: Staphylococcus aureus, ATCC29213; 35 °C, 18 h; read-out: MIC S. aureus.
Source text: as §3, §4

The test system of series [6] is Escherichia coli (ATCC 25922). The series is described as follows: Antibacterial assay, microbroth dilution MIC. As to conditions: Escherichia coli, ATCC25922; 35 °C, 18 h; read-out: MIC E. coli. In kind it is cell-based.
Source text: as §3, §4
In general terms: In broth dilution the organism is exposed to a series of concentrations in liquid medium.

For series [7], the system named is Monilia albicans (ATCC 10231). Put plainly: Antifungal assay, microbroth dilution MIC. In kind it is cell-based. The following applies: Candida albicans, ATCC10231; 35 °C, 18 h; read-out: MIC M. albicans.
Source text: as §3, §4

Series [8] deals with Bel-7402 cells. Put plainly: Mitochondrial membrane potential, JC-1 staining, flow cytometry. As to conditions: 48 h, 0 μM 4.62%. It is filed as cell-based, human. On the procedure: In the field of cancer, cellular apoptosis plays a very important role. The loss of mitochondrial membrane potential is a key event during drug-induced apoptosis. In order to investigate the mitochondria related effect of 9f, the fluorescent probe JC-1 (Keygen, KGA601, Nanjing, China) was used to detect the changes on mitochondrial membrane potential. Before Bel-7402 cells were stained with JC-1, cells were incubated with 0, 0.15, 0.3, and 0.6 μM of 9f. Then, the flow cytometry analysis was carried out to determine the cell numbers with collapsed mitochondria in different cell groups (Figure 4).
Bel-7402 cells were cultured in six-well plates after treatment with 9f or vehicles for 48 h. The cells were cells were collected by trypsinization, washed with PBS (Sigma Chemical Co., Shanghai, China) and stained according to the manufacturer’s instruction (Keygen, KGA601, Nanjing, China) with the lipophilic cationic dye JC-1. The flow cytometry analysis was carried out to monitor the percentage of cells with healthy or collapsed mitochondrial membrane potentials.

In series [9] the test system is human normal liver cells L-02. The series is described as follows: MTT assay on normal cells. It is filed as cell-based. As to conditions: MTT, 72 h, normal liver cells, mean ± SD of three experiments, read-out: IC50 L-02. Here is the method:
as §1, §2

Series [10] concerns Bel-7402 cells. The series is described as follows: Cell cycle distribution by PI staining and flow cytometry. In kind it is cell-based, human. As to conditions: 48 h, control 25.51%. From the text:
Cell cycle arrest is an important sign for inhibition of proliferation and the series of events that take place in a cell leading to its division and replication. […] As the inhibitory effect of 9f on cell proliferation was observed, we next assessed the effect on the cell cycle distribution of Bel-7402 cells by flow cytometry (Figure 2). […] Compound 9f could influence Bel-7402 cell cycle progression at low micromolar concentrations in a dose-dependent manner.
Bel-7402 cells (5.0 × 10^3 cells/well) were plated in 6-well plates and incubated for 24 h, and then incubated with different concentrations (0.25, 0.5 and 1 μM) of 9f at 37 °C for 48 h. After 48 h treatment, cells were treated with 70% ethanol and RNase, sequentially, and stained with PI [34]. Cellular DNA content was measured by a flow cytometer for cell cycle distribution analysis.

For series [11], the system named is Bel-7402 cells. Put plainly: Apoptosis by Annexin-V and PI double staining, flow cytometry. It is filed as cell-based, human. The following applies: 72 h; for total percentage of apoptotic cells (early and late, Q2 + Q4): vehicle 7.88%. On the procedure:
To examine the potent cancer cell antiproliferative effect of 9f on Bel-7402 cells, the number of apoptotic cells was monitored using flow cytometry. The total percentage of apoptotic cells (early and late, Q2 + Q4) was 7.88% treated with a vehicle alone.
Bel-7402 cells were incubated with different concentrations (0.25, 0.5 and 1 μM) of 9f for 72 h. Then, Annexin-V and PI double staining was used to detect apoptotic cells to analyze apoptosis according to the manufacturer’s instructions by flow cytometry.
(Flow cytometry measures light scatter and fluorescence of single cells or particles in a stream.)

In brackets after ≈: the same amount, converted by molar mass. Where two headings read alike, the source gives them in different places.

Usually IC50 stands for the point on the concentration scale where inhibition reaches its midpoint. Usually melting point stands for the temperature, or range, at which the solid turns liquid. A word on the MIC: it is the smallest concentration in the dilution series that meets the test's criterion for growth inhibition. `C=C1C(=O)[C@@]23C(=O)O[C@H]4CCC(C)(C)[C@H]5[C@H](O)OC[C@@]45[C@@H]2CC[C@@H]1[C@H]3OC(=O)c1ccccc1C(=O)OCCCOc1no[n+]([O-])c1S(=O)(=O)c1ccccc1` [Compound 9f] came in with a melting point of 128 to 130 °C. In [1] (Homo sapiens, MGC-803, 72 h), the IC50 was determined as 1.11 ± 0.05 µM. Further, in [2], the IC50 came out at 0.72 ± 0.04 µM and the “SI (selectivity index)” value is 26.1. In the series on K562 leukemia cell line (Homo sapiens, K562, 72 h), the IC50 was determined as 1.68 ± 0.12 µM. The IC50 in series [3] came out at 3.6 ± 0.12 µM. The MIC in series [4] turned out to be 64 µg/mL (≈ 80.7 µM). Also, in series [5], the MIC came to 32 µg/mL (≈ 40.4 µM). Also, in series [6], the MIC is over 100 µg/mL. The MIC in series [7] was over 100 µg/mL. The “percentage of apoptotic cells (collapsed mitochondria, JC-1)” value in the series on Bel-7402 cells [8] (0.15 μM) came to 8.81%. Besides, the “percentage of apoptotic cells (collapsed mitochondria, JC-1)” value in the series with Bel-7402 cells [8] (0.3 μM) came out at 21.82%. Further, in the series with Bel-7402 cells [8] (0.6 μM), the “percentage of apoptotic cells (collapsed mitochondria, JC-1)” value was 25.98%. Besides, the half-maximal inhibitory concentration (IC50) in series [9] was found to be 18.8 ± 1.25 µM. The “cells in S phase” value in the series on Bel-7402 cells [10] (0.25 μM) was 31.78%. Besides, the “cells in S phase” value in the series on Bel-7402 cells [10] (0.5 μM) was determined as 45.33%. The “cells in S phase” value in the series on Bel-7402 cells [10] (1 μM) came out at 49.78%. Besides, in the series with Bel-7402 cells [11] (0.25 μM), the “apoptotic cells, fold of control group” value amounted to 2.76 fold; the “total percentage of apoptotic cells (early and late, Q2 + Q4)” value (from here on “total percentage of apoptotic cells”) came out at 21.74%. Further, in the series with Bel-7402 cells [11] (0.5 μM), the “apoptotic cells, fold of control group” value is on record as 4.54 fold; the “total percentage of apoptotic cells” value is 35.78%. In the series with Bel-7402 cells [11] (1 μM), the “apoptotic cells, fold of control group” value was found to be 8.01 fold; the “total percentage of apoptotic cells” value came out at 63.15%.
For the compound `C=C1C(=O)[C@@]23C(=O)O[C@H]4CCC(C)(C)[C@H]5[C@H](O)OC[C@@]45[C@@H]2CC[C@@H]1[C@H]3OC(=O)c1ccccc1C(=O)OCCCCOc1no[n+]([O-])c1S(=O)(=O)c1ccccc1` [Compound 9i], the melting point was in the range of 126 to 128 °C. Moreover, in series [1] (Homo sapiens, MGC-803, 72 h), the IC50 was determined as 1.86 µM. Besides, the 50% inhibitory concentration (IC50) in series [1] was 1.25 ± 0.1 µM. Also, in series [2], the IC50 was determined as 0.78 ± 0.04 µM and the “SI (selectivity index)” value is given as 18.6. Further, in the series on K562 leukemia cell line (Homo sapiens, K562, 72 h), the IC50 amounted to 1.25 µM. In addition, in the series with K562 leukemia cell line, the IC50 was 1.86 ± 0.18 µM. Also, the IC50 in series [3] was found to be 3.82 ± 0.19 µM. Also, the MIC in series [4] came to 2 µg/mL (≈ 2.48 µM). Moreover, the MIC in series [5] came to 16 µg/mL (≈ 19.8 µM). Also, the minimal inhibitory concentration (MIC) in [6] is over 100 µg/mL. In addition, the minimum inhibitory concentration (MIC) in series [7] is over 100 µg/mL. In addition, the IC50 in series [9] was 14.6 ± 0.86 µM.
